The nature of data set [1]: Pharmacokinetics, plasma concentrations by LC/MS/MS. It is filed as in vivo. The conditions noted are these: CD1 mice. As to the method:
The in vivo properties of ‘A3’ were evaluated. The pharmacokinetics of ‘A3’ after a single oral (25 mg/kg) and intravenous (10 mg/kg) dose of in CD1 mice were determined. Plasma was obtained at pre-specified time points (15 min to 24 hours) and ‘A3’ concentrations were determined by LC/MS/MS. […] Oral bioavailability of ‘A3’ was insignificant. The time-point of maximal CHFR suppression at 4 hrs follow the peak in A3 plasma levels with some delay.

A short description of data set [2]: Toxicity in treated xenograft mice. The data set is classed as in vivo. The conditions noted are these: combination treatment with A3 and docetaxel, 10 days after treatment.
In a further data set the test system is A549 cells. The data set is described as follows: Cell cycle analysis by flow-cytometry, antephase checkpoint. The data set is classed as cell-based. The conditions noted are these: unsynchronized A549 cells, 12 hours, docetaxel 50 nM with A3 10 uM. The text has this: Cell cycle arrest at G2/M in response to microtubular damage is a hallmark of a functional antephase checkpoint.

A further data set deals with T1, PARP1-CHFR interaction (Homo sapiens, UniProt Q96EP1).
T1 construct: expressed in transfected cells; CHFR endogenous
T1 sequence (Q96EP1 1-664): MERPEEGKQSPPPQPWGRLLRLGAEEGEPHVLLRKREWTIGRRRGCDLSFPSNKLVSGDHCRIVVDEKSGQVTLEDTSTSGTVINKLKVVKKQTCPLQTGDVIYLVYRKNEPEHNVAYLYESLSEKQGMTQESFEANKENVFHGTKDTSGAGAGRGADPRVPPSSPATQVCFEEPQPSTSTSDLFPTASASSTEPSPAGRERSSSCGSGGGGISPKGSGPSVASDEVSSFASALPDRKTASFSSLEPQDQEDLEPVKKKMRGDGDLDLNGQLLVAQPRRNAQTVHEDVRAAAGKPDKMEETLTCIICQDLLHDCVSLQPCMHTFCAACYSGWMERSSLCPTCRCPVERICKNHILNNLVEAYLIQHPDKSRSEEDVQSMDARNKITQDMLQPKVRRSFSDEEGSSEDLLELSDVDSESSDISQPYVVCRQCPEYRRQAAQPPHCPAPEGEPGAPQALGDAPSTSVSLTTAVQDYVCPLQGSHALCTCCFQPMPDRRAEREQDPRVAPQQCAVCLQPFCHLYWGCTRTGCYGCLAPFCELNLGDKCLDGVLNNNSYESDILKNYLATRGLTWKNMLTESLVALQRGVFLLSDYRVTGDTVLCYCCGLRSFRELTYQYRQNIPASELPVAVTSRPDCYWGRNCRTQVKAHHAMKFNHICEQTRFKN
Put plainly: Glutathione affinity pull-down of GST tagged PARP1 with CHFR in HEK293 cells. The conditions noted are these: 10 uM, 16 hours. It is filed as cell-based. As to the method:
In an attempt to generate possible lead compounds for the pharmacologic inhibition of the CHFR-PARP1 interaction, a high throughput computational screen of 5,256,508 chemical structures in the MCULE database of purchasable compounds using the AutoDockVina algorithm against the published crystal structure of the CHFR-PBZ domain was performed. The 10 most promising ‘hits’ based on Autodock Vina docking scores (<−9.7) were selected for further characterization. Commercially available compounds were tested for their impact on nuclear CHFR levels (FIG. 3A). Several compounds, including ‘A2’, ‘A3’, ‘A4’ and ‘A6’ decreased CHFR levels assayed by western blotting of whole cell extracts. The impact of the above referenced compounds on the PARP1/CHFR interaction were evaluated. HEK293 cells were transfected with GST tagged PARP1 and the interaction with CHFR determined in pull down assays for those 4 compounds. […] In contrast to treatment with ABT-888, ‘A3’ completely disrupted the interaction between GST-tagged PARP-1 and CHFR (FIG. 3B). […] Since it is possible that the co-immunoprecipitation between PARP-1 and CHFR after ‘A3’ treatment was negative due to the fact that CHFR was degraded, the experiment was repeated after transfection with the Ring-domain deleted ΔR-CHFR construct, which maintained both stable CHFR and PARP1 levels even after treatment with ‘A3’. […]

The test system of data set [3] is CHFR expressing cell lines. Put plainly: Colony formation assays on a panel of cell lines of different cancer types. It is filed as cell-based. The method, then: Various cell lines of different tissues of origin and with different CHFR expression status were exposed to 1 hour of docetaxel and 72 hours of ‘A3’. Effects were defined as 1−colony count (treatment)/colony count (control). The nature of the interaction between the two compounds was analyzed by the Bliss additivity method. […] For subsequent colony formation assays, cell lines were characterized into CHFR expressing vs. CHFR deficient cell lines by Western-Blot.
Finally, colony formation assays were performed on a panel of cell lines of different cancer types such as lung-, breast-, and colon cancer.

A further data set concerns the target T2, CHFR (Homo sapiens, UniProt Q96EP1).
T2 sequence (Q96EP1 1-664): T1 sequence (Q96EP1 1-664)
The data set is described as follows: CHFR levels by western blotting of whole cell extracts. It is filed as cell-based. More on the design: endogenous in cells; host or cells: A549. The settings on record: 10 uM, 24 hours, A549 cells. As to the method:
The 10 compounds with the highest docking scores were tested for their ability to regulate CHFR expression levels.
In an attempt to generate possible lead compounds for the pharmacologic inhibition of the CHFR-PARP1 interaction, a high throughput computational screen of 5,256,508 chemical structures in the MCULE database of purchasable compounds using the AutoDockVina algorithm against the published crystal structure of the CHFR-PBZ domain was performed. The 10 most promising ‘hits’ based on Autodock Vina docking scores (<−9.7) were selected for further characterization. Commercially available compounds were tested for their impact on nuclear CHFR levels (FIG. 3A). Several compounds, including ‘A2’, ‘A3’, ‘A4’ and ‘A6’ decreased CHFR levels assayed by western blotting of whole cell extracts. The impact of the above referenced compounds on the PARP1/CHFR interaction were evaluated. HEK293 cells were transfected with GST tagged PARP1 and the interaction with CHFR determined in pull down assays for those 4 compounds. […] In contrast to treatment with ABT-888, ‘A3’ completely disrupted the interaction between GST-tagged PARP-1 and CHFR (FIG. 3B). […]
For orientation: A western blot detects proteins with antibodies after separation by electrophoresis.

Results on one compound are retold here after US9907797B2, “Combination therapies for overcoming resistance to mitotic agents during chemotherapy” (EMORY UNIVERSITY, priority 2014, dated 2018).

Take `Cc1ccc(N2C(=O)NC(=O)C(=Cc3cn(Cc4ccccc4)c4ccccc34)C2=O)cc1C` [A3, 5-((1-benzyl-1H-indol-3-yl)methylene)-1-(3,4-dimethylphenyl)pyrimidine-2,4,6(1H,3H,5H)-trione]: the distribution entry in data set [1] (following intravenous dosing 10 mg/kg) is “rapidly and widely distributed”. Also, the “relative bioavailability from dose normalized AUC values” in data set [1] (single oral (25 mg/kg) and intravenous (10 mg/kg) dose) was 19.5%. For the same compound, the Oral bioavailability result in data set [1] (single oral dose 25 mg/kg) is “insignificant”. Further, in data set [2], the “hematologic, hepatic and renal toxicity” value was “not associated with a significant increase in hematologic, hepatic and renal toxicity”. Also, the “docetaxel induced cell cycle arrest” value in the data set on A549 cells is “prevented docetaxel induced cell cycle arrest”. Moreover, the “interaction between PARP1 and CHFR” value on PARP1-CHFR interaction is “completely inhibited an interaction between PARP1 and CHFR”. Further, the “synergy between A3 and docetaxel, colony formation (Bliss additivity)” value is “strong synergy” in data set [3] (CHFR expressing cell line H460); “synergy between ‘A3’ and docetaxel was observed for all other CHFR expressing cell lines” in data set [3] (CHFR expressing cell lines other than EKVX, 1 hour docetaxel, 72 hours A3). Besides, the CHFR expression result on CHFR is recorded as “reduced CHFR expression”.
